From ChEMBL document CHEMBL1201862, “PubChem BioAssay data set” (2004)
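Growth conditions: 96-well plates. Treatment: test compound, 48 hours, 5 concentrations. Analysis: linear interpolation between bracketing concentrations; unreached endpoints set to highest concentration. GI50 is the concentration that inhibits growth by half.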 Activity calls are given as the source filed them. Rule as the data show it: active = GI50 up to about 1.1 µM and inactive = higher.

What was measured:
Assay in all cases: inhibition of tumour cell growth, NCI panel, 48 h
[1] = test system: U-251
[2] = test system: COLO 205
[3] = test system: CAKI-1
[4] = test system: SK-MEL-28
[5] = test system: PC-3
[6] = test system: OVCAR-8
[7] = test system: SK-OV-3
[8] = test system: SF-268
[9] = test system: MCF7
[10] = test system: HOP-92
[11] = test system: UO-31
[12] = test system: 786-0
[13] = test system: LOX IMVI
[14] = test system: HCT-15
[15] = test system: HT-29
[16] = test system: NCI-H226
[17] = test system: MDA-MB-435
[18] = test system: OVCAR-4
[19] = test system: SW-620
[20] = test system: SF-539

CC1(C)COP(=S)(c2ccccn2)O[C@@H]1c1ccccc1 (some centres undefined)
GI50 [1]: > 100 µM (inactive)
GI50 [2]: 38.3 µM (inactive)
GI50 [3]: > 100 µM (inactive)
GI50 [4]: > 100 µM (inactive)
GI50 [5]: 88.7 µM (inactive)
GI50 [6]: > 100 µM (inactive)
GI50 [7]: > 100 µM (inactive)
GI50 [8]: > 100 µM (inactive)
GI50 [9]: 98.6 µM (inactive)
GI50 [10]: > 100 µM (inactive)
GI50 [11]: 50.8 µM (inactive)
GI50 [12]: > 100 µM (inactive)
GI50 [13]: > 100 µM (inactive)
GI50 [14]: 94.2 µM
GI50 [15]: 81.8 µM (inactive)
GI50 [16]: 37.9 µM (inactive)
GI50 [17]: > 100 µM (inactive)
GI50 [18]: 70 µM (inactive)
GI50 [19]: > 100 µM (inactive)

CC1(C)CNC(c2ccc3c(c2)Cc2cc(C4=NC(C)(C)CN4)ccc2-3)=N1
GI50 [1]: 22 µM (inactive)
GI50 [2]: 28.2 µM (inactive)
GI50 [3]: > 100 µM (inactive)
GI50 [4]: 38.7 µM (inactive)
GI50 [5]: 39.8 µM (inactive)
GI50 [6]: 37 µM (inactive)
GI50 [7]: 44.5 µM (inactive)
GI50 [8]: 34.6 µM (inactive)
GI50 [9]: 23.3 µM (inactive)
GI50 [10]: 90.8 µM (inactive)
GI50 [11]: > 100 µM (inactive)
GI50 [12]: 49.8 µM (inactive)
GI50 [13]: 37 µM (inactive)
GI50 [14]: > 100 µM
GI50 [15]: 32.1 µM (inactive)
GI50 [16]: 49.4 µM (inactive)
GI50 [17]: 32.8 µM (inactive)
GI50 [18]: 32.9 µM (inactive)
GI50 [19]: 34.5 µM (inactive)

Cc1n[nH]c(=O)n1N1C(=O)c2ccccc2C1=O
GI50 [1]: > 100 µM (inactive)
GI50 [2]: > 100 µM (inactive)
GI50 [20]: > 100 µM (inactive)
GI50 [3]: > 100 µM (inactive)
GI50 [4]: > 100 µM (inactive)
GI50 [5]: > 100 µM (inactive)
GI50 [6]: > 100 µM (inactive)
GI50 [9]: > 100 µM (inactive)
GI50 [10]: > 100 µM (inactive)
GI50 [11]: > 100 µM (inactive)
GI50 [12]: > 100 µM (inactive)
GI50 [13]: > 100 µM (inactive)
GI50 [14]: > 100 µM
GI50 [15]: > 100 µM (inactive)
GI50 [16]: > 100 µM (inactive)
GI50 [17]: > 100 µM (inactive)
GI50 [18]: > 100 µM (inactive)
GI50 [19]: > 100 µM (inactive)

CCCCCCCCCCCCCCCCC(=O)NCC(=O)NCC(=O)NC(Cc1ccccc1)C(=O)Oc1ccc([N+](=O)[O-])cc1 (centres undefined)
GI50 [1]: 18.4 µM (inactive)
GI50 [2]: 20.2 µM (inactive)
GI50 [20]: 27.6 µM (inactive)
GI50 [3]: 17.2 µM (inactive)
GI50 [4]: 15.8 µM (inactive)
GI50 [5]: 31.5 µM (inactive)
GI50 [6]: 19.2 µM (inactive)
GI50 [8]: 23.3 µM (inactive)
GI50 [9]: 48.4 µM (inactive)
GI50 [10]: 32.1 µM (inactive)
GI50 [11]: 67.9 µM (inactive)
GI50 [12]: 27.5 µM (inactive)
GI50 [13]: 20.4 µM (inactive)
GI50 [14]: 19.1 µM
GI50 [15]: 29.3 µM (inactive)
GI50 [16]: 35 µM (inactive)
GI50 [17]: 58.5 µM (inactive)
GI50 [18]: > 100 µM (inactive)
GI50 [19]: 19.4 µM (inactive)

COc1c(O)cc(C(=O)O[C@@H]2Cc3c(O)cc(O)cc3O[C@@H]2c2cc(O)c(O)c(O)c2)cc1O
GI50 [3]: > 100 µM (inactive)
GI50 [4]: > 100 µM (inactive)
GI50 [5]: 68.1 µM (inactive)
GI50 [6]: 23.3 µM (inactive)
GI50 [7]: > 100 µM (inactive)
GI50 [8]: 20.5 µM (inactive)
GI50 [9]: 20 µM (inactive)
GI50 [10]: > 100 µM (inactive)
GI50 [11]: 23 µM (inactive)
GI50 [12]: 18.5 µM (inactive)
GI50 [13]: 19.7 µM (inactive)
GI50 [14]: 26.5 µM
GI50 [15]: 18.2 µM (inactive)
GI50 [17]: 17.4 µM (inactive)
GI50 [18]: 20.2 µM (inactive)
GI50 [19]: 28.2 µM (inactive)

CC1=CC(C)C(O)C(C)/C=C\C(O)C/C=C(/C)C(=O)CC(O)C(C)\C=C/C=C\C=C/C(=O)NC2=C(O)C(=O)c3c(cc(C)c(O)c3C1=O)C2=O (centres undefined)
GI50 [1]: > 100 µM (inactive)
GI50 [2]: > 100 µM (inactive)
GI50 [20]: 62.1 µM (inactive)
GI50 [3]: > 100 µM (inactive)
GI50 [4]: > 100 µM (inactive)
GI50 [5]: > 100 µM (inactive)
GI50 [6]: > 100 µM (inactive)
GI50 [8]: 94.4 µM (inactive)
GI50 [9]: 25.8 µM (inactive)
GI50 [10]: > 100 µM (inactive)
GI50 [11]: > 100 µM (inactive)
GI50 [12]: > 100 µM (inactive)
GI50 [13]: > 100 µM (inactive)
GI50 [14]: > 100 µM
GI50 [15]: 56.4 µM (inactive)
GI50 [17]: > 100 µM (inactive)
GI50 [18]: > 100 µM (inactive)
GI50 [19]: > 100 µM (inactive)
